Experimental data: ChEMBL document CHEMBL4145553, “Design, synthesis, and biological evaluation of novel amide and hydrazide based thioether analogs targeting Histone deacteylase (HDAC) enzymes” (Eur J Med Chem, 2018)

How the values were obtained:
[1] = system: K562; assay: Growth of human K562 cells at 10 uM incubated for 48 hrs by sulforhodamine B assay relative to control; details: K562, 48 h
[2] = system: OVCAR-4; assay: Growth of human OVCAR4 cells at 10 uM incubated for 48 hrs by sulforhodamine B assay relative to control; details: OVCAR-4, 48 h
[3] = system: MCF7; assay: Growth inhibition of human MCF7 cells at 10 uM incubated for 48 hrs by sulforhodamine B assay relative to control; assay type: functional; details: MCF7, 48 h, values are per cent of control
[4] = system: Malme-3M; assay: Growth of human MALME-3M cells at 10 uM incubated for 48 hrs by sulforhodamine B assay relative to control
[5] = system: KM12; assay: Growth of human KM12 cells at 10 uM incubated for 48 hrs by sulforhodamine B assay relative to control; details: KM12, 48 h
[6] = system: MDA-MB-231; assay: Growth inhibition of human MDA-MB-231 cells at 10 uM incubated for 48 hrs by sulforhodamine B assay relative to control; assay type: functional; details: MDA-MB-231, 48 h, values are per cent of control
[7] = system: U-251; assay: Growth of human U251 cells at 10 uM incubated for 48 hrs by sulforhodamine B assay relative to control; details: U-251, 48 h
[8] = system: SK-MEL-28; assay: Growth of human SK-MEL-28 cells at 10 uM incubated for 48 hrs by sulforhodamine B assay relative to control; details: SK-MEL-28, 48 h
[9] = system: SNB-75; assay: Growth of human SNB75 cells at 10 uM incubated for 48 hrs by sulforhodamine B assay relative to control; details: SNB-75, 48 h
[10] = system: RXF 393; assay: Growth inhibition of human RXF393 cells at 10 uM incubated for 48 hrs by sulforhodamine B assay relative to control; assay type: functional; details: RXF 393, 48 h, values are per cent of control
[11] = system: HOP-62; assay: Growth of human HOP62 cells at 10 uM incubated for 48 hrs by sulforhodamine B assay relative to control; details: HOP-62, 48 h
[12] = system: SF-295; assay: Growth of human SF295 cells at 10 uM incubated for 48 hrs by sulforhodamine B assay relative to control; details: SF-295, 48 h
[13] = system: A498; assay: Growth inhibition of human A498 cells at 10 uM incubated for 48 hrs by sulforhodamine B assay relative to control; assay type: functional; details: A498, 48 h, values are per cent of control
[14] = system: HT-29; assay: Growth of human HT-29 cells at 10 uM incubated for 48 hrs by sulforhodamine B assay relative to control; details: HT-29, 48 h
[15] = system: A549; assay: Growth of human A549/ATCC cells at 10 uM incubated for 48 hrs by sulforhodamine B assay relative to control; details: A549, 48 h
[16] = system: NCI/ADR-RES; assay: Growth inhibition of human NCI/ADR-RES cells at 10 uM incubated for 48 hrs by sulforhodamine B assay relative to control; assay type: functional; details: values are per cent of control
[17] = system: IGROV-1; assay: Growth of human IGROV1 cells at 10 uM incubated for 48 hrs by sulforhodamine B assay relative to control; details: IGROV-1, 48 h
[18] = system: COLO 205; assay: Growth of human COLO205 cells at 10 uM incubated for 48 hrs by sulforhodamine B assay relative to control; details: COLO 205, 48 h
[19] = system: SNB-19; assay: Growth of human SNB19 cells at 10 uM incubated for 48 hrs by sulforhodamine B assay relative to control; details: SNB-19, 48 h
[20] = system: HCT-116; assay: Growth of human HCT116 cells at 10 uM incubated for 48 hrs by sulforhodamine B assay relative to control; details: HCT-116, 48 h
[21] = system: OVCAR-5; assay: Growth of human OVCAR5 cells at 10 uM incubated for 48 hrs by sulforhodamine B assay relative to control; details: OVCAR-5, 48 h
[22] = system: RPMI-8226; assay: Growth of human RPMI8226 cells at 10 uM incubated for 48 hrs by sulforhodamine B assay relative to control; details: RPMI-8226, 48 h
[23] = system: SF-268; assay: Growth of human SF268 cells at 10 uM incubated for 48 hrs by sulforhodamine B assay relative to control; details: SF-268, 48 h
[24] = system: UACC-62; assay: Growth of human UACC62 cells at 10 uM incubated for 48 hrs by sulforhodamine B assay relative to control; details: UACC-62, 48 h
[25] = system: M14; assay: Growth of human M14 cells at 10 uM incubated for 48 hrs by sulforhodamine B assay relative to control; details: M14, 48 h
[26] = system: SK-MEL-5; assay: Growth of human SK-MEL-5 cells at 10 uM incubated for 48 hrs by sulforhodamine B assay relative to control; details: SK-MEL-5, 48 h
[27] = system: UO-31; assay: Growth inhibition of human UO31 cells at 10 uM incubated for 48 hrs by sulforhodamine B assay relative to control; assay type: functional; details: UO-31, 48 h, values are per cent of control
[28] = system: BT-549; assay: Growth inhibition of human BT549 cells at 10 uM incubated for 48 hrs by sulforhodamine B assay relative to control; assay type: functional; details: BT-549, 48 h, values are per cent of control
[29] = system: SN12C; assay: Growth inhibition of human SN12C cells at 10 uM incubated for 48 hrs by sulforhodamine B assay relative to control; assay type: functional; details: values are per cent of control
[30] = system: T47D; assay: Growth inhibition of human T47D cells at 10 uM incubated for 48 hrs by sulforhodamine B assay relative to control; assay type: functional; details: values are per cent of control
[31] = system: HOP-92; assay: Growth inhibition of human HOP92 cells at 10 uM incubated for 48 hrs by sulforhodamine B assay relative to control; assay type: functional; details: HOP-92, 48 h, values are per cent of control
[32] = system: LOX IMVI; assay: Growth of human LOXIMVI cells at 10 uM incubated for 48 hrs by sulforhodamine B assay relative to control
[33] = system: UACC-257; assay: Growth of human UACC257 cells at 10 uM incubated for 48 hrs by sulforhodamine B assay relative to control; details: UACC-257, 48 h

| Compound | growth, % of control at 10 µM [1] | growth, % of control at 10 µM [2] | growth, % of control at 10 µM [3] | growth, % of control at 10 µM [4] | growth, % of control at 10 µM [5] | growth, % of control at 10 µM [6] | growth, % of control at 10 µM [7] | growth, % of control at 10 µM [8] | growth, % of control at 10 µM [9] | growth, % of control at 10 µM [10] | growth, % of control at 10 µM [11] | growth, % of control at 10 µM [12] | growth, % of control at 10 µM [13] | growth, % of control at 10 µM [14] | growth, % of control at 10 µM [15] | growth, % of control at 10 µM [16] | growth, % of control at 10 µM [17] | growth, % of control at 10 µM [18] | growth, % of control at 10 µM [19] | growth, % of control at 10 µM [20] | other results |
| --- | --- | --- | --- | --- | --- | --- | --- | --- | --- | --- | --- | --- | --- | --- | --- | --- | --- | --- | --- | --- | --- |
| CC(C)(C)S/C(Nc1ccccc1)=C(\C#N)C(=O)N/N=C\c1ccc(Cl)cc1Cl | 91.8% | 112% | 92.7% | 94.2% | 102% | 96.8% | 98.6% | 108% | 102% | 103% | 98.1% | 97.9% | 101% | 92.6% | 98.1% | 96% | 98.7% | 112% | 97.5% | 88% | growth, % of control at 10 µM [21]: 106%; growth, % of control at 10 µM [22]: 98.7%; growth, % of control at 10 µM [23]: 99.7%; growth, % of control at 10 µM [24]: 89.9%; growth, % of control at 10 µM [25]: 98.5%; growth, % of control at 10 µM [26]: 98.7%; growth, % of control at 10 µM [27]: 82.7%; growth, % of control at 10 µM [28]: 97%; growth, % of control at 10 µM [29]: 101%; growth, % of control at 10 µM [30]: 78.4%; growth, % of control at 10 µM [31]: 94.1%; growth, % of control at 10 µM [32]: 101%; growth, % of control at 10 µM [33]: 92.5% |
| CC(C)(C)S/C(Nc1ccccc1)=C(\C#N)C(=O)N/N=C\c1ccco1 | 100% | 104% | 92.3% | 104% | 104% | 99.6% | 94.7% | 106% | 82.2% | 105% | 93.8% | 102% | 87% | 87.2% | 79.6% | 100% | 106% | 102% | 96.9% | 82.9% | growth, % of control at 10 µM [21]: 101%; growth, % of control at 10 µM [22]: 106%; growth, % of control at 10 µM [23]: 99.7%; growth, % of control at 10 µM [24]: 93.5%; growth, % of control at 10 µM [25]: 105%; growth, % of control at 10 µM [26]: 96.9%; growth, % of control at 10 µM [27]: 90.2%; growth, % of control at 10 µM [28]: 103%; growth, % of control at 10 µM [29]: 103%; growth, % of control at 10 µM [30]: 91.4%; growth, % of control at 10 µM [31]: 82.3%; growth, % of control at 10 µM [32]: 99.6%; growth, % of control at 10 µM [33]: 83% |
| CCS/C(Nc1ccccc1)=C(\C#N)C(=O)Nc1ccc(OC)cc1 | 7.34% | 66.7% | 19% | 55.5% | 31% | 44.5% | 16.6% | 58.9% | 18.2% | 39.5% | 34.2% | 32.6% | 22.7% | 6.46% | 34.6% | -0.67% | 55.7% | 17.5% | 23.1% | 14.3% | growth, % of control at 10 µM [21]: 63.1%; growth, % of control at 10 µM [22]: 25.2%; growth, % of control at 10 µM [23]: 39.1%; growth, % of control at 10 µM [24]: 27.2%; growth, % of control at 10 µM [25]: 15.2%; growth, % of control at 10 µM [26]: 17.8%; growth, % of control at 10 µM [27]: 50%; growth, % of control at 10 µM [28]: 40.5%; growth, % of control at 10 µM [29]: 37.8%; growth, % of control at 10 µM [30]: 25.4%; growth, % of control at 10 µM [31]: 44.5%; growth, % of control at 10 µM [32]: 36.6%; growth, % of control at 10 µM [33]: 58.4% |
